Laboratory results taken from patent publication US12029796B2, “Fluorescent probes for silver ION detection” (THE HONG KONG UNIVERSITY OF SCIENCE AND TECHNOLOGY, priority 2017, dated 2024).
Where two headings read alike, the source gives them in different places.

How the values were obtained:
[1] = Fluorescent quantum yield in solid state and in solution; assay type: physicochemical; conditions: solid state
Protocol: (§1) The present compounds are strongly emissive in the solid state with good fluorescent quantum yields. The compounds are weakly emissive or non-emissive when dissolved in aqueous solutions. […] In contrast, when these compounds are dissolved, the solutions only emit faint light (Qy<1%). The compounds dissolve well in alcohols. The compounds can be modestly dissolved (for TPE-4TTZ, up 100 μM in DI-water) in the aqueous phase. Furthermore by the addition of NaOH solutions, the formed salts dissolve well in the aqueous phase (for TPE-4TTZ, up to 1 M in water).

[2] = Fluorescence turn-on sensing and titration of silver ions; conditions: for ratio [Ag^+]:[probe] at which PL intensity is saturated / maximum: probe 5 μM; for LOD (limit of detection) of silver ions / Linear Range of silver ion detection: probe 5 μM in DI-water, excitation 345 nm
Source text: The turn-on fluorescence response was instant. The detection of silver ions was highly sensitive and sharp intensity changes could be detected with the naked eye. DLS (Dynamic light scattering) measurement confirmed the formation of nanoparticles. […] This is likely due to the reduction of silver-tetrazole complexes by the strong electron-beam during TEM studies. These emissive silver-compound solid complexes are hardly soluble in a range of solvents, including DMSO, methanol, and water. NMR analysis of these complexes is not possible. The complexes are also resistant to acid/base treatment, or heating by a heat-gun.
In fluorescence spectroscopy, solutions containing silver ions behaved quite differently from solutions without silver ions in terms of intensity, with the ratio of intensity at maximum peak at 504 nm exceeding 400 times (FIGS. 3A-3D). […] By plotting the intensity of maximum intensive peaks against the ratio of ion concentrations, it was expected that the working curve for the quantitative detection of silver ions could be established. […] Meanwhile, the detection limit (LOD) of silver ions is estimated to be 40 nM (S/N=3 and n=11). With a further increase of [Ag^+], the intensity reaches a plateau.
Tetrazole-tagged AIE luminogen TPE-4TTZ (5 μM) undergoes a fluorescence turn-on response towards a solution of silver ions. The solutions can include organic solutions, aqueous solutions including natural water, wastes and/or biological buffer solutions. PL spectra were recorded on a Perkin-Elmer LS 55 spectrofluorometer.
The solutions included organic solutions, aqueous solutions including natural water, wastes and/or biological buffer solutions. For the same probes, the calibration curve varied a little in different solutions. UV spectra were measured on a Biochrom Libra S80PC double beams spectrometer. PL spectra were recorded on a Perkin-Elmer LS 55 spectrofluorometer.

[3] = Solubility in the aqueous phase; assay type: physicochemical
Protocol: as §1

[4] = Selectivity: fluorescence response to mercury ions
Source text: (§2) As selectivity is an important parameter for sensing technique, responses of these probes to other metal ions were examined. […] Mercury is reported to coordinate with the tetrazole group.
The Ag^+/Hg^2+ coordination-induced fluorescence can be pH-sensitive. For example, with respect to TPE-4TTZ, a series of tests were done in phosphate buffer solutions at different pH varying from 4 to 12. At pH lower than 4, the tetrazole moiety (pKa˜4-5) was largely in the protonated form and sparingly soluble in solution and, thus, aggregated. The aggregation elicited fluorescence with a different color from that of the silver complexes. Therefore, the turn-on detection is only possible in solutions with pH>4. […] Furthermore regarding the mercury detection, the FL response was significant only at the pH window (4˜7); when pH>8, the fluorescence turn-on was not observed anymore. […]
With reference to FIG. 7, tetrazole-tagged AIE luminogen TPE-4TTZ (10 μM) underwent a fluorescence turn-on response towards a solution of silver ions in the presence of other metal ions in phosphate aqueous solution (10 mM, pH 7.4). PL spectra were recorded on a Perkin-Elmer LS 55 spectrofluorometer. Tetrazole-tagged AIE luminogen TPE-4TTZ (10 μM) underwent a fluorescence turn-on response towards a solution of silver ions in the presence of other silver-binding molecules in phosphate aqueous solution (10 mM, pH 7.4). […]

[5] = Interference of silver-binding reagents with silver sensing; conditions: TPE-4TTZ 5 μM, anions 100 equiv.
Protocol: Detection can be based on selective coordination involving electrostatic interactions. Tests were conducted to determine whether silver binding moieties (e.g., anions) might be another kind of interfering factor in the mixture. […] After a short while of shaking, the probe (10 eq.) was added. Each solution was gently mixed and then checked in a PL machine. Compared with the control group, the interfering reagents including amino acids and DNA/RNA bases were only weakly interfering with the silver-tetrazole sensing process. In other words, the tetrazole anions can snatch silver ions from these ligands and elicit a fluorescence turn-on. There were exceptions, in particular for strong silver-interacting structures. Cysteine, the sulfur-containing amino acid, blocked sensing by the strong S—Ag interaction. Similar results were seen from SCN^− and S2O3^2-, due to their stronger binding affinity towards Ag^+ than the tetrazole anion (CN4^−). In addition, ammonium solution blocked sensing by reducing Ag^+ into metallic silver.
With reference to FIG. […] PL spectra were recorded on a Perkin-Elmer LS 55 spectrofluorometer. […] In each example, the silver-binding molecule was added prior to the addition of the probes from a stock solution. The stock solution of the probe is 1 mM in ethanol. PL spectra were recorded on a Perkin-Elmer LS 55 spectrofluorometer.

[6] = Selectivity: fluorescence response to other metal ions
Protocol: as §2
With reference to FIG. 7, tetrazole-tagged AIE luminogen TPE-4TTZ (10 μM) underwent a fluorescence turn-on response towards a solution of silver ions in the presence of other metal ions in phosphate aqueous solution (10 mM, pH 7.4). PL spectra were recorded on a Perkin-Elmer LS 55 spectrofluorometer. Tetrazole-tagged AIE luminogen TPE-4TTZ (10 μM) underwent a fluorescence turn-on response towards a solution of silver ions in the presence of other silver-binding molecules in phosphate aqueous solution (10 mM, pH 7.4). In each example, the silver-binding molecule was added prior to the addition of the probes from a stock solution. The stock solution of the probe is 1 mM in ethanol. PL spectra were recorded on a Perkin-Elmer LS 55 spectrofluorometer.

[7] = pH dependence of Ag^+ induced fluorescence in phosphate buffer; conditions: phosphate buffer solutions
Source text: The Ag^+/Hg^2+ coordination-induced fluorescence can be pH-sensitive. For example, with respect to TPE-4TTZ, a series of tests were done in phosphate buffer solutions at different pH varying from 4 to 12. At pH lower than 4, the tetrazole moiety (pKa˜4-5) was largely in the protonated form and sparingly soluble in solution and, thus, aggregated. The aggregation elicited fluorescence with a different color from that of the silver complexes. Therefore, the turn-on detection is only possible in solutions with pH>4. When pH is from 5˜6, PL response is significant enough for a high resolution detection of silver ions. […] Furthermore regarding the mercury detection, the FL response was significant only at the pH window (4˜7); when pH>8, the fluorescence turn-on was not observed anymore. Thus, TPE-4TTZ is only sensitive to silver ions in basic solutions. Similar observations were made for the other tetrazole-tagged TPEs.

[8] = cited from earlier work
[9] = phosphate aqueous solution 10 mM, pH 7.4

Compound | fluorescent quantum yield (Qy) [1] | ratio [Ag^+]:[probe] at which PL intensity is saturated / maximum [2] | LOD (limit of detection) of silver ions [2] | Linear Range of silver ion detection [2] | solubility ([3]; deionised water, DI-water, read-out: solubility in the aqueous phase) | solubility ([3]; water with added NaOH solution, aqueous buffer, water, after addition of NaOH solution, read-out: solubility of the formed salt in the aqueous phase) | PL response to mercury ions [4, 9] | pH window with significant FL response to mercury ([4]; phosphate buffer solutions, pH 4 to 12) | fluorescence on mixing with different anions without Ag^+ [5] | PL response to Mg^2+, Mn^2+, Zn^2+, Al^3+ etc. [6, 9] | effect of Fe^2+, Fe^3+, Co^2+ and Cu^2+ on fluorescence ([6]; same conditions) | pH at which maximum PL response to silver is relatively stable [7] | pH at which turn-on detection of silver is possible ([7]; pH 4 to 12) | pKa of tetrazole moiety [8] | fluorescence response on addition of silver ions ([2]; TPE-4TTZ 5 μM, silver ions 500 μM, UV 350 nm)
c1ccc(C(=C(c2ccccc2)c2ccc(-c3nnn[nH]3)cc2)c2ccccc2)cc1 [TPE-1TTZ] | 39.6% | 0.6 | 1.5 nM | 0.1~3 μM | – | – | – | – | – | – | – | – | – | – | –
c1cc(-c2nnn[nH]2)ccc1C(=C(c1ccc(-c2nnn[nH]2)cc1)c1ccc(-c2nnn[nH]2)cc1)c1ccc(-c2nnn[nH]2)cc1 [TPE-4TTZ] | 76.8% | ~4 | 2.3 nM | 0.04~15 μM | ≤ 0.1 mM | ≤ 1000 mM | significant enhancement of PL intensity | 4˜7 | did not generate strong fluorescence | hardly increased the PL intensity | quench the weak fluorescence | > 6 | > 4 | 4-5 | highly emissive
c1ccc(C(=C(c2ccc(-c3nnn[nH]3)cc2)c2ccc(-c3nnn[nH]3)cc2)c2ccccc2)cc1 [TPE-2TTZ] | 36.2% | 2.6 | 3.0 nM | 0.2~10 μM | – | – | – | – | – | – | – | – | – | – | –
